The results in this text go back to patent publication US20130064955A1, “NATURAL SWEETENED COMPOSITIONS AND METHODS FOR PREPARING THE SAME” (priority 2011, published 2013).

Test [1] deals with human sense of taste. Description: Determination of sweetness recognition threshold concentration by trained taste tester. In kind it is in vivo. To be noted: in water at room temperature; for minimal effective concentration: Homo sapiens, read-out: Sweetness recognition threshold Level. The procedure: The term “sweetness recognition threshold concentration,” as generally used herein, is the lowest known concentration of a sweet compound that is perceivable by the human sense of taste. The sweetness recognition threshold level is specific for a particular compound, and varies based on temperature, matrix, ingredients and/or flavor system. The sweetness recognition threshold concentrations measurements and 5% sucrose equivalence measurements described herein were determined in water at room temperature.
A sip (approximately 2-5 mL) of control sample, including but not limited to water, was tasted and swallowed by a trained taste tester. After allowing a 15-25 second interval to pass, a second sip of the control is tasted and swallowed. The taste properties of the control are determined and recorded by the trained taste tester. An unknown sample is then tasted and swallowed in the same manner, allowing a 15-25 second interval between the two sips. Preferably no more than ten additives are tested per day to avoid taste fatigue. Each sample was taken at least 1.5 hours following eating or drinking The sweetness recognition thresholds concentration of 21 steviol glycosides were determined in this manner, and are shown in Table 1.

For test [2], the system named is human sense of taste. Description: Sugar-like taste quality enhancement of Stevia sweeteners by steviol glycoside additives, taste test by trained individual.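 For Taste change of Stevia Sweetener JSS (380 ppm) with Steviol Glycoside Additive: code −B means less bitterness.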 In kind it is in vivo. As to conditions: for Taste change of Stevia Sweetener JSS (380 ppm) with Steviol Glycoside Additive / Taste change of Stevia Sweetener REBD (303 ppm) with Steviol Glycoside Additive / Taste change of Stevia Sweetener REBA (303 ppm) with Steviol Glycoside Additive: additive at or below its sweetness recognition threshold concentration, 5% sucrose equivalence, water, room temperature; for Taste change of Stevia Sweetener REBD (303 ppm) with Steviol Glycoside Additive: rebaudioside D 303 ppm; for Taste change of Stevia Sweetener REBA (303 ppm) with Steviol Glycoside Additive: 97% pure rebaudioside A 303 ppm. How it is done: A steviol glycoside is added in an amount at or below sweetness recognition threshold concentration to a solution of water and a Stevia sweetener. The solution is maintained at room temperature. Each sample is taste tested by a trained individual, as described in Example 1, in duplicate. Preferably no more than ten steviol glycosides are tested per day to avoid taste fatigue. Each sample was taken at least 1.5 hours following eating or drinking
The Stevia sweeteners used in this study were 97% pure rebaudioside A, JSS, and rebaudioside D.
The steviol glycosides were used in at or below sweetness recognition threshold concentrations. […]

Regarding `C=C1C[C@@]23CC[C@H]4[C@@](C)(CCC[C@@]4(C)C(=O)O[C@@H]4O[C@H](CO)[C@@H](O)[C@H](O)[C@H]4O)[C@@H]2CC[C@]1(O[C@@H]1O[C@H](CO)[C@@H](O)[C@H](O[C@@H]2O[C@H](CO)[C@@H](O)[C@H](O)[C@H]2O)[C@H]1O[C@@H]1O[C@H](CO)[C@@H](O)[C@H](O)[C@H]1O)C3` [Rebaudioside A, rebaudioside A], the “Sweetness recognition threshold Level” value in test [1] is reported as 12.6 ppm. In addition, the “Sweetness recognition threshold Level” value in test [1] (listed as rebaudioside A) was “about 12.6 ppm”. Further, in test [2], the “Taste change of Stevia Sweetener JSS (380 ppm) with Steviol Glycoside Additive” value (“Taste change of Stevia Sweetener JSS” below) is given as “N (N: no difference in presence or absence of steviol glycoside additive;)” and the “Taste change of Stevia Sweetener REBD (303 ppm) with Steviol Glycoside Additive” value (shortened to “Taste change of Stevia Sweetener REBD”) was “N (N: no difference in presence or absence of steviol glycoside additive;)”.

With `C=C1C[C@@]23CC[C@H]4[C@@](C)(CCC[C@@]4(C)C(=O)OC4OC(C(=O)O)C(O)C(O)C4O)[C@@H]2CC[C@]1(O)C3` (stereo partly drawn) [Steviol glucuronide, steviol glucoronide], the minimal effective concentration in test [1] came to 85 µg/mL. Further, the bitterness entry in test [2] (additive at 85 ppm, 5% SE JSS) is listed as “less bitterness”. Besides, in test [2], the “Taste change of Stevia Sweetener REBA (303 ppm) with Steviol Glycoside Additive” value (“Taste change of Stevia Sweetener REBA” for short) was “N (N: no difference in presence or absence of steviol glycoside additive;)”, the “Taste change of Stevia Sweetener JSS” value was “−B” and the “Taste change of Stevia Sweetener REBD” value is listed as “N (N: no difference in presence or absence of steviol glycoside additive;)”.

Regarding `C=C1C[C@@]23CC[C@H]4[C@@](C)(CCC[C@@]4(C)C(=O)O[C@@H]4O[C@H](CO)[C@@H](O)[C@H](O)[C@H]4O[C@@H]4O[C@H](CO)[C@@H](O)[C@H](O)[C@H]4O)[C@@H]2CC[C@]1(O[C@@H]1O[C@H](CO)[C@@H](O)[C@H](O[C@@H]2O[C@H](CO)[C@@H](O)[C@H](O)[C@H]2O)[C@H]1O[C@@H]1O[C@H](CO)[C@@H](O)[C@H](O)[C@H]1O)C3` [Rebaudioside D, rebaudioside D], the figures for the “Sweetness recognition threshold Level” value in test [1] and in test [1] (listed as rebaudioside D) were 25 ppm and “about 25 ppm”, respectively. Further, the “Taste change of Stevia Sweetener REBA” value in test [2] is listed as “N (N: no difference in presence or absence of steviol glycoside additive;)”. The “Taste change of Stevia Sweetener JSS” value in test [2] was “N (N: no difference in presence or absence of steviol glycoside additive;)”.

For the compound rebaudioside B, the “Sweetness recognition threshold Level” value in test [1] is given as 25 ppm. Also, in test [2], the “Taste change of Stevia Sweetener REBA” value is “N (N: no difference in presence or absence of steviol glycoside additive;)”, the “Taste change of Stevia Sweetener JSS” value is “N (N: no difference in presence or absence of steviol glycoside additive;)” and the “Taste change of Stevia Sweetener REBD” value is “N (N: no difference in presence or absence of steviol glycoside additive;)”.

Turning to `C[C@H](CC[C@@H](O[C@@H]1O[C@H](CO[C@@H]2O[C@H](CO)[C@@H](O)[C@H](O)[C@H]2O)[C@@H](O)[C@H](O)[C@H]1O[C@@H]1O[C@H](CO)[C@@H](O)[C@H](O)[C@H]1O)C(C)(C)O)[C@H]1CC[C@@]2(C)[C@@H]3CC=C4[C@@H](CC[C@H](O[C@@H]5O[C@H](CO[C@@H]6O[C@H](CO)[C@@H](O)[C@H](O)[C@H]6O)[C@@H](O)[C@H](O)[C@H]5O)C4(C)C)[C@]3(C)[C@H](O)C[C@]12C` [Mogroside V, mogroside V], in test [1], the “Sweetness recognition threshold Level” value came out at 20 ppm. Besides, the “Sweetness recognition threshold Level” value in test [1] (listed as mogroside V) was “about 15 ppm”. In test [2], the “Taste change of Stevia Sweetener REBA” value is given as “N (N: no difference in presence or absence of steviol glycoside additive;)”, the “Taste change of Stevia Sweetener JSS” value is on record as “N (N: no difference in presence or absence of steviol glycoside additive;)” and the “Taste change of Stevia Sweetener REBD” value is on record as “~+S (~+S: Slightly more detected sweetness intensity (~0.5% Sucrose Equivalence);)”.

As to rebaudioside F, the “Sweetness recognition threshold Level” value in test [1] turned out to be 25 ppm. In addition, in test [2], the “Taste change of Stevia Sweetener REBA” value is “N (N: no difference in presence or absence of steviol glycoside additive;)”, the “Taste change of Stevia Sweetener JSS” value is “N (N: no difference in presence or absence of steviol glycoside additive;)” and the “Taste change of Stevia Sweetener REBD” value was “N (N: no difference in presence or absence of steviol glycoside additive;)”.

With `C[C@@]12CCC[C@@](C)(C(=O)OC3OC(CO)C(O)C(O)C3O)[C@H]1CC[C@@]13C[C@@](OC4OC(CO)C(O)C(OC5OC(CO)C(O)C(O)C5O)C4OC4OC(CO)C(O)C(O)C4O)(CC[C@H]12)[C@](C)(O)C3` (stereo partly drawn) [Compound 3], in test [1], the minimal effective concentration came to 700 µg/mL. Further, the “modulation of Stevia sweeteners” value in test [2] (additive at 700 ppm, all Stevia sweeteners) is given as “positive modulation of all Stevia sweeteners”. Besides, in test [2] (additive at 700 ppm, with Stevia sweeteners), the off-taste note entry was “weak chemical-like note”. In test [2], the “Taste change of Stevia Sweetener REBA” value is “+, −B, −SL, OF”; the “Taste change of Stevia Sweetener JSS” value was “−B, OF”; the “Taste change of Stevia Sweetener REBD” value is “+, −SL, OF”. Also, the “sugar-like taste quality enhancement effect” value in test [2] (mostly in 5% SE rebaudioside A, compared with compound 1) is “similar, but smaller positive sugar-like taste quality enhancement effect”.

For `C=C1C[C@@]23CC[C@H]4[C@@](C)(CCC[C@@]4(C)C(=O)O[C@@H]4O[C@H](CO)[C@@H](O)[C@H](O)[C@H]4O)[C@@H]2CC[C@]1(O[C@@H]1O[C@H](CO)[C@@H](O)[C@H](O)[C@H]1O[C@@H]1O[C@@H](C)[C@H](O)[C@@H](O)[C@H]1O)C3` [Dulcoside A, dulcoside A], in test [1], the “Sweetness recognition threshold Level” value was 50 ppm. In test [2], the “Taste change of Stevia Sweetener REBA” value is on record as “N (N: no difference in presence or absence of steviol glycoside additive;)”, the “Taste change of Stevia Sweetener JSS” value is “N (N: no difference in presence or absence of steviol glycoside additive;)” and the “Taste change of Stevia Sweetener REBD” value is recorded as “N (N: no difference in presence or absence of steviol glycoside additive;)”.

For the compound `C=C1C[C@@]23CC[C@H]4[C@@](C)(CCC[C@@]4(C)C(=O)O)[C@@H]2CC[C@]1(O[C@@H]1O[C@H](CO)[C@@H](O)[C@H](O)[C@H]1O[C@@H]1O[C@H](CO)[C@@H](O)[C@H](O)[C@H]1O)C3` [Steviolbioside, steviolbioside], the “Sweetness recognition threshold Level” value in test [1] is 50 ppm. In test [2], the “Taste change of Stevia Sweetener REBA” value is reported as “N (N: no difference in presence or absence of steviol glycoside additive;)”, the “Taste change of Stevia Sweetener JSS” value is reported as “N (N: no difference in presence or absence of steviol glycoside additive;)” and the “Taste change of Stevia Sweetener REBD” value is “N (N: no difference in presence or absence of steviol glycoside additive;)”.

In the case of `C=C1C[C@@]23CC[C@H]4[C@@](C)(CCC[C@@]4(C)C(=O)O[C@@H]4O[C@H](CO)[C@@H](O)[C@H](O)[C@H]4O)[C@@H]2CC[C@]1(O[C@@H]1O[C@H](CO)[C@@H](O)[C@H](O)[C@H]1O)C3` [Rubusoside, rubusoside], in test [1], the minimal effective concentration was 50 µg/mL. Besides, in test [2], the “Taste change of Stevia Sweetener REBA” value is given as “N(+) (N(+): same as “N” but slightly more;)”, the “Taste change of Stevia Sweetener JSS” value is on record as “N (N: no difference in presence or absence of steviol glycoside additive;)” and the “Taste change of Stevia Sweetener REBD” value is “N (N: no difference in presence or absence of steviol glycoside additive;)”.
